Holding throughout (assay): NCI tumour cell line growth inhibition, 48 h
Experiment [1] deals with HCC-2998 colon.
Experiment [2] relates to HT29 colon.
Experiment [3] concerns OVCAR-3 ovarian.
In experiment [4] the test system is SF-539 CNS.
Experiment [5] deals with SK-MEL-5 melanoma.
Experiment [6] relates to SK-OV-3 ovarian.
Experiment [7] relates to SNB-75 CNS.
Experiment [8] relates to U251 CNS.
Experiment [9] has as its system CAKI-1 renal.
Experiment [10] has as its system HOP-62 NSCLC.

These results are taken from PubChem BioAssay (NCI).

Where “and” joins values, the source holds several entries; their conditions need not be identical. Equal values may be shown once.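 Following 48 hours of exposure in 96-well plates, responses at five concentrations were used to interpolate endpoints linearly. GI50 is the concentration that inhibits growth by half. At the TGI there is no net growth.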

Consider `C=C1C(=O)O[C@H]2[C@H]1CC/C(COC(=O)c1ccc(Br)cc1)=C\CC[C@@]1(C)O[C@@H]21`, for which the GI50 is 2.05 µM in experiment [1]; 1.13 µM in experiment [2]; 1.02 µM in [3]; 1.5 µM in experiment [4]; 1.81 µM in [5]; 14.8 µM in experiment [6]. For the same compound, the values for the GI50 in experiment [7] and in experiment [8] were 1.16 µM and 1.55 µM, respectively. Besides, the TGI in experiment [1] is 4.27 µM; in experiment [2], 3.43 µM; in [3] it was 2.24 µM; in experiment [4], 2.88 µM; in [5], 3.28 µM; in experiment [6], 28.1 µM. The TGI was determined as 2.41 µM in experiment [7] and 2.98 µM in [8].
As for `NC(=O)COc1ccc(Br)cc1Br`, the TGI in experiment [9], in experiment [10], in [2], in experiment [3], in [4] and in [5] was over 100 µM throughout. Also, the TGI in experiment [6], in experiment [7] and in experiment [8] was over 100 µM throughout.
Consider `Clc1ccc2c(NCCNc3nc(Cl)nc4ccccc34)ccnc2c1`, for which the GI50 in experiment [1] was 1.62 µM; in [10], 0.56 µM; in experiment [2] it was 0.193 µM; in [3], 1.29 µM; in experiment [4] it was 1.6 µM; in experiment [5], 1.76 µM. Further, the values for the GI50 in [6] and in experiment [7] were 1.82 µM and 1.64 µM, respectively. In addition, the TGI in experiment [1] turned out to be 3.18 µM; in experiment [10], 2.09 µM; in experiment [2], 0.377 µM; in experiment [3], 2.68 µM; in experiment [4], 3.12 µM; in [5] it was 3.22 µM. In addition, the TGI was 3.35 µM in experiment [6] and 3.16 µM in experiment [7].
With `O=C1/C(=C/c2ccc(Cl)cc2)COc2ccc(Br)cc21`, the TGI in [1], in experiment [10], in experiment [2], in [3], in experiment [4] and in experiment [5] was over 100 µM each time. Further, the TGI in [6], in [7] and in [8] was over 100 µM each time.
For the compound `CCOC(=O)CCC(NC(=O)c1ccc(Nc2nc3cc(N)cc(N)c3nc2-c2ccccc2)cc1)C(=O)OCC` (configuration not stated), the GI50 in experiment [9] is over 52.6 µM; in [10], over 44.1 µM; in experiment [2], 83.6 µM; in [3] it was 13.4 µM; in [4] it was 27.3 µM; in experiment [5], 12.6 µM. In addition, the GI50 is 22 µM in experiment [6], over 100 µM in experiment [7] and over 44.7 µM in [8]. The TGI is over 100 µM in [9]; over 63 µM in experiment [10]; over 100 µM in experiment [2]; 39.4 µM in [3]; over 100 µM in experiment [4]; 44.6 µM in experiment [5]. Further, the TGI in experiment [6] is 47.7 µM; in experiment [7], over 100 µM; in experiment [8], over 66 µM.
Consider `O=C1/C(=C/c2ccccc2)CN(C(=O)Oc2ccccc2)C/C1=C\c1ccccc1`, for which the TGI in experiment [10] was 39.7 µM; in experiment [2] it was over 100 µM; in [3], over 100 µM; in experiment [4], 22.3 µM; in experiment [5] it was over 100 µM; in [7] it was 17.5 µM. Moreover, in [8], the TGI was over 100 µM.
As to `COC(=O)C12CC(NC(=O)c3csc([C@@H](C[C@H](C(C)C)N(C)C(=O)[C@@H](NC(=O)[C@H]4CCCCN4C)C(C)C)OC(C)=O)n3)(C1)C2`, the GI50 in experiment [1] is 0.00748 µM and 0.00333 µM; in experiment [10] it was 0.00353 µM; in experiment [2], 0.00177 µM and 0.00333 µM; in experiment [3], 0.000335 µM and 0.00333 µM; in experiment [4], 0.00226 µM; in experiment [5], 0.000829 µM and 0.00333 µM. The GI50 was 0.00639 µM and 0.00333 µM in experiment [6]; 0.00333 µM in experiment [7]; 0.00429 µM and 0.00333 µM in [8]. The TGI in experiment [1] is over 33.3 µM; in experiment [2], 0.0396 µM; in [3], 0.0024 µM and 0.00441 µM; in [4], 0.0267 µM; in [5], 0.0324 µM and 0.173 µM; in [6] it was over 33.3 µM. Besides, the TGI in experiment [7] and in experiment [8] was over 33.3 µM each time.
As for `O=[P+](O)c1cc2c3ccccc3ccc2c2ccccc12`, the TGI in [1], in experiment [10], in experiment [2], in [3], in experiment [4] and in [5] was over 100 µM throughout. Besides, the TGI in experiment [6], in experiment [7] and in [8] was over 100 µM in each case.
Regarding `O=c1cc(-c2ccccc2)[nH]c2c(F)ccc(F)c12`, the TGI in experiment [9], in [10], in experiment [2], in experiment [4], in experiment [5] and in experiment [6] was over 100 µM each time. The TGI in [7] was 59 µM; in experiment [8] it was over 100 µM.
Regarding `CC(=O)[O-].CC(=O)[O-].CC(=O)[O-].CC(=O)[O-].CO.CO.CO.[Rh+2].[Rh+2].c1ccc(-c2ccccn2)nc1`, the GI50 in [1], in experiment [10], in [2], in [3], in experiment [4] and in experiment [5] was over 100 µM throughout. Moreover, the GI50 in experiment [6], in experiment [7] and in [8] was over 100 µM in each case. In addition, the TGI in experiment [1], in experiment [10], in experiment [2], in experiment [3], in experiment [4] and in [5] was over 100 µM in each case. Also, the TGI in [6], in experiment [7] and in experiment [8] was over 100 µM each time.
